{
  "source": "patent US8063059B2",
  "about": "“Use of compositions containing kappa-opioid receptor antagonists for the treatment of dissociative disorders” (Emodys GmbH, priority 2006, dated 2011)",
  "key": {"[1]": {"test_system": "patient diagnosed with post traumatic stress disorders", "assay": "Medical Application Example 1: buprenorphine in a patient with post traumatic stress disorders", "type": "in vivo, human", "conditions": "one patient", "protocol": "Buprenorphine in the form of a tablet with an active ingredient content of 12 mg was administered sublingually to a patient diagnosed with post traumatic stress disorders with the corresponding psychiatric symptoms."}, "[2]": {"test_system": "patient diagnosed with emotionally unstable personality disorder", "assay": "Medical Application Example 3: buprenorphine in patients with emotionally unstable personality disorder", "type": "in vivo, human", "protocol": "In medical application examples 3 and 4 buprenorphine, alone or in conjunction with a kappa-opioid receptor antagonist, is used for patients diagnosed with emotionally unstable personality disorder as a possibility for treating the personality disorder and reducing the associated social, somatic and psychiatric consequences.\nBuprenorphine was administered as a mucoadhesive sachet with an active ingredient content of 12 mg to a patient diagnosed with emotionally unstable personality disorder."}, "[3]": {"conditions": "one year following the start of treatment"}},
  "data": [
    {"substance": "2-(N-cyclopropylmethyl-4,5alpha-epoxy-3-hydroxy-6-methoxy-6,14-endoethanomorphinan-7alpha-yl)-3,3-dimethyl-2-butanol [Buprenorphine]", "values": [
      {"measurement": "flashback symptoms and daily life intrusions", "setting": "[1]; [3]", "result": "significant improvement"},
      {"measurement": "lethargy and emotional swings, intrusive dissociation sensations (patient-indicated)", "setting": "[1]; [3]", "result": "clear subjective improvement"},
      {"measurement": "occurrence of flashback situations", "setting": "[1]; sublingual tablet, daily dosage increased from 12 mg to 16 mg", "result": "decrease significantly"},
      {"measurement": "self-injuries after one year", "setting": "[2]; one patient, daily ingestion of 12 mg, after one year", "result": "complete lack of self-injuries"},
      {"measurement": "self-injuring behaviour", "setting": "[2]; one patient, mucoadhesive sachet, 12 mg", "result": "complete remission"},
      {"measurement": "frequency of self-cutting", "setting": "[2]; two other patients", "result": "significant reduction"}
    ]}
  ]
}
